Assay results as given in US10927123B2, “Modulators of the beta-3 adrenergic receptor useful for the treatment or prevention of disorders related thereto” (Arena Pharmaceuticals, Inc., priority 2016, dated 2021).

These compounds were tested against Beta-3 Adrenergic Receptor (Homo sapiens (Human), UniProt P13945) (assay: HTRF cAMP antagonist assay (IC50 determination)). Details: CHO-K1 cells stably expressing recombinant receptor; antagonism of isoproterenol at EC90; cAMP readout.
Type: cell-based
In short: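 In this functional readout, recombinant CHO-K1 cells received compound, then isoproterenol at its EC90. After 1 h at room temperature, cAMP levels were determined by HTRF using an on-plate standard curve, and IC50 values were fitted.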

Beta-3 Adrenergic Receptor, sequence (P13945 whole entry, species assumed): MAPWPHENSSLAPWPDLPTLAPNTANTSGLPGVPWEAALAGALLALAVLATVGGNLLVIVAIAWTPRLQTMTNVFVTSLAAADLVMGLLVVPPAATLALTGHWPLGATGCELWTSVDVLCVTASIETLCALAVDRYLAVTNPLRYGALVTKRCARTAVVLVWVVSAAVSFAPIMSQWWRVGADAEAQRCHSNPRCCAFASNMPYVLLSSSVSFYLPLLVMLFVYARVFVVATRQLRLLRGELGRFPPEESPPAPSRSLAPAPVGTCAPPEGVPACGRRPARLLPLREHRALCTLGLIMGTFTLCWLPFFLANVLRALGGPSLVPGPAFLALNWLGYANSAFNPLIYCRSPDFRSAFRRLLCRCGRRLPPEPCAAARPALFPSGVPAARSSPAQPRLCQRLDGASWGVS

IC50	Compound
369 nM	Cc1cc(=O)[nH]c2ccc(S(=O)(=O)N3CCC4(CC3)C[C@@H](NC[C@H](O)COc3cccc(S(=O)(=O)C5(CO)CC5)c3)CO4)cc12 [Compound 236, 6-((R)-3-((S)-2-hydroxy-3-(3-(1-(hydroxymethyl)cyclopropylsulfonyl)phenoxy)propylamino)-1-oxa-8-azaspiro[4.5]decan-8-ylsulfonyl)-4-methylquinolin-2(1H)-one]
82 nM	CCOc1ccc(S(=O)(=O)N2CCC3(CC2)C[C@H](NC[C@H](O)COc2cccc(S(=O)(=O)C4(CO)CC4)c2)CO3)cc1-c1ccc(CN)cc1 [Compound 237, (S)-1-((S)-8-(4′-(aminomethyl)-6-ethoxybiphenyl-3-ylsulfonyl)-1-oxa-8-azaspiro[4.5]decan-3-ylamino)-3-(3-(1-(hydroxymethyl)cyclopropylsulfonyl)phenoxy)propan-2-ol]
22.8 nM	COc1ccc(S(=O)(=O)N2CCC3(CC2)C[C@H](NC[C@H](O)COc2cccc(S(=O)(=O)C(F)(F)CO)c2)CO3)cc1-c1ccc(CN)cc1 [Compound 238, (S)-1-((S)-8-(4′-(aminomethyl)-6-methoxybiphenyl-3-ylsulfonyl)-1-oxa-8-azaspiro[4.5]decan-3-ylamino)-3-(3-(1,1-difluoro-2-hydroxyethylsulfonyl)phenoxy)propan-2-ol]
30.9 nM	COc1ccc(S(=O)(=O)N2CCC3(CC2)C[C@H](NC[C@H](O)COc2cccc(S(=O)(=O)C(F)(F)CO)c2)CO3)cc1-c1ccc(C2(N)CC2)cc1 [Compound 239, (S)-1-((S)-8-(4′-(1-aminocyclopropyl)-6-methoxybiphenyl-3-ylsulfonyl)-1-oxa-8-azaspiro[4.5]decan-3-ylamino)-3-(3-(1,1-difluoro-2-hydroxyethylsulfonyl)phenoxy)propan-2-ol]
31.7 nM	CC(C)(C)NCc1ccc(-c2cccc(S(=O)(=O)N3CCC4(CC3)C[C@H](NC[C@H](O)COc3cccc(S(=O)(=O)C5(CO)CC5)c3)CO4)c2)cc1 [Compound 240, (S)-1-((S)-8-(4′-((tert-butylamino)methyl)biphenyl-3-ylsulfonyl)-1-oxa-8-azaspiro[4.5]decan-3-ylamino)-3-(3-(1-(hydroxymethyl)cyclopropylsulfonyl)phenoxy)propan-2-ol]
21.1 nM	CCC(C)(C)NCc1ccc(-c2cccc(S(=O)(=O)N3CCC4(CC3)C[C@H](NC[C@H](O)COc3cccc(S(=O)(=O)C5(CO)CC5)c3)CO4)c2)cc1 [Compound 241, (S)-1-(3-(1-(hydroxymethyl)cyclopropylsulfonyl)phenoxy)-3-((S)-8-(4′-((tert-pentylamino)methyl)biphenyl-3-ylsulfonyl)-1-oxa-8-azaspiro[4.5]decan-3-ylamino)propan-2-ol]
35.5 nM	O=S(=O)(c1cccc(-c2ccc(CNCC(F)(F)F)cc2)c1)N1CCC2(CC1)C[C@H](NC[C@H](O)COc1cccc(S(=O)(=O)C3(CO)CC3)c1)CO2 [Compound 242, (S)-1-(3-(1-(hydroxymethyl)cyclopropylsulfonyl)phenoxy)-3-((S)-8-(4′-((2,2,2-trifluoroethylamino)methyl)biphenyl-3-ylsulfonyl)-1-oxa-8-azaspiro[4.5]decan-3-ylamino)propan-2-ol]
35 nM	O=S(=O)(c1cccc(-c2ccc(CN3CCC3)cc2)c1)N1CCC2(CC1)C[C@H](NC[C@H](O)COc1cccc(S(=O)(=O)C3(CO)CC3)c1)CO2 [Compound 243, (S)-1-((S)-8-(4′-(azetidin-1-ylmethyl)biphenyl-3-ylsulfonyl)-1-oxa-8-azaspiro[4.5]decan-3-ylamino)-3-(3-(1-(hydroxymethyl)cyclopropylsulfonyl)phenoxy)propan-2-ol]
27.8 nM	CCCNCc1ccc(-c2cccc(S(=O)(=O)N3CCC4(CC3)C[C@H](NC[C@H](O)COc3cccc(S(=O)(=O)C5(CO)CC5)c3)CO4)c2)cc1 [Compound 244, (S)-1-(3-(1-(hydroxymethyl)cyclopropylsulfonyl)phenoxy)-3-((S)-8-(4′-((propylamino)methyl)biphenyl-3-ylsulfonyl)-1-oxa-8-azaspiro[4.5]decan-3-ylamino)propan-2-ol]
18.4 nM	CCCCNCc1ccc(-c2cccc(S(=O)(=O)N3CCC4(CC3)C[C@H](NC[C@H](O)COc3cccc(S(=O)(=O)C5(CO)CC5)c3)CO4)c2)cc1 [Compound 245, (S)-1-((S)-8-(4′-((butylamino)methyl)biphenyl-3-ylsulfonyl)-1-oxa-8-azaspiro[4.5]decan-3-ylamino)-3-(3-(1-(hydroxymethyl)cyclopropylsulfonyl)phenoxy)propan-2-ol]
48.3 nM	O=S(=O)(c1cccc(-c2ccc(CN3CCOCC3)cc2)c1)N1CCC2(CC1)C[C@H](NC[C@H](O)COc1cccc(S(=O)(=O)C3(CO)CC3)c1)CO2 [Compound 246, (S)-1-(3-(1-(hydroxymethyl)cyclopropylsulfonyl)phenoxy)-3-((S)-8-(4′-(morpholinomethyl)biphenyl-3-ylsulfonyl)-1-oxa-8-azaspiro[4.5]decan-3-ylamino)propan-2-ol]
33.5 nM	COCCNCc1ccc(-c2cccc(S(=O)(=O)N3CCC4(CC3)C[C@H](NC[C@H](O)COc3cccc(S(=O)(=O)C5(CO)CC5)c3)CO4)c2)cc1 [Compound 247, (S)-1-(3-(1-(hydroxymethyl)cyclopropylsulfonyl)phenoxy)-3-((S)-8-(4′-((2-methoxyethylamino)methyl)biphenyl-3-ylsulfonyl)-1-oxa-8-azaspiro[4.5]decan-3-ylamino)propan-2-ol]
72.4 nM	O=S(=O)(CCO)c1cc(F)cc(OC[C@@H](O)CN[C@H]2COC3(CCN(S(=O)(=O)c4cnc5ccccc5c4)CC3)C2)c1 [Compound 248, (S)-1-(3-fluoro-5-(2-hydroxyethylsulfonyl)phenoxy)-3-((R)-8-(quinolin-3-ylsulfonyl)-1-oxa-8-azaspiro[4.5]decan-3-ylamino)propan-2-ol]
224 nM	O=S(=O)(CCO)c1cc(F)cc(OC[C@@H](O)CN[C@H]2COC3(CCN(S(=O)(=O)c4ccc5ncccc5c4)CC3)C2)c1 [Compound 249, (S)-1-(3-fluoro-5-(2-hydroxyethylsulfonyl)phenoxy)-3-((R)-8-(quinolin-6-ylsulfonyl)-1-oxa-8-azaspiro[4.5]decan-3-ylamino)propan-2-ol]
336 nM	Cc1c(S(=O)(=O)N2CCC3(CC2)C[C@H](NC[C@H](O)COc2cccc(S(=O)(=O)C4(CO)CC4)c2)CO3)cnc2c1N(C)CCO2 [Compound 250, (S)-1-((S)-8-(1,8-dimethyl-2,3-dihydro-1H-pyrido[2,3-b][1,4]oxazin-7-ylsulfonyl)-1-oxa-8-azaspiro[4.5]decan-3-ylamino)-3-(3-(1-(hydroxymethyl)cyclopropylsulfonyl)phenoxy)propan-2-ol]
51.6 nM	CCOc1ccc(-c2ccc(C(C)(C)N)cc2)cc1S(=O)(=O)N1CCC2(CC1)CC(NC[C@H](O)COc1cccc(S(=O)(=O)C3(CO)CC3)c1)CO2 (stereo partly drawn) [Compound 251]
29.3 nM	CCOc1ccc(-c2ccc(C3(N)CC3)cc2)cc1S(=O)(=O)N1CCC2(CC1)C[C@H](NC[C@H](O)COc1cccc(S(=O)(=O)C3CC3)c1)CO2 [Compound 252]
29.1 nM	COc1ccc(S(=O)(=O)N2CCC3(CC2)C[C@H](NC[C@H](O)COc2cccc(S(=O)(=O)C4CC4)c2)CO3)cc1-c1ccc(C2(N)CC2)cc1 [Compound 253, (S)-1-((S)-8-(4′-(1-aminocyclopropyl)-6-methoxybiphenyl-3-ylsulfonyl)-1-oxa-8-azaspiro[4.5]decan-3-ylamino)-3-(3-(cyclopropylsulfonyl)phenoxy)propan-2-ol]
